Earlier results on 85 molecules are cited in patent US20170239173A1, “TRANSDERMAL ABSORPTION ENHANCER AND TRANSDERMAL ABSORPTION ENHANCEMENT AID” (ASAHI KASEI KABUSHIKI KAISHA, priority 2014, published 2017).

The conditions of the data set: partition coefficient between water and 1-octanol; cited from earlier work.
What is called Log P is a log measure of how a compound divides between an organic and an aqueous phase. Take `Nc1cc(N2CCCCC2)nc(N)[n+]1[O-]` [minoxidil]: the “Log P” value is 1.2.

On to `CC(C)NCC(O)c1ccc(O)c(O)c1` (stereo not shown) [isoprenaline], for which the “Log P” value was −0.6.

On to `Oc1cccc(O)c1` [resorcin], for which the “Log P” value was 0.8.

In the case of `NC(=O)NC1NC(=O)NC1=O` (stereo not shown) [allantoin], the “Log P” value is given as −2.2.

Take `N=C(N)NC(=O)Cc1c(Cl)cccc1Cl` [guanfacine]: the “Log P” value is 2.

`N[C@@H](Cc1c[nH]c2ccccc12)C(=O)O` [tryptophan]: the “Log P” value was −1.1.

In the case of `c1ccc(CC2=NCCN2)cc1` [tolazoline], the “Log P” value is 2.6.

For `C[C@H]1C[C@@H]2[C@H]([C@@H](O)C[C@@]3(C)[C@H]2CC[C@]3(O)C(=O)CO)[C@@]2(C)C=CC(=O)C=C12` [methylprednisolone], the “Log P” value is given as 1.9.

In the case of `Oc1ccc(O)cc1` [hydroquinone], the “Log P” value was −0.6.

As to `O=C(C[S+]([O-])Cc1ccco1)NC/C=C\COc1cc(CN2CCCCC2)ccn1` (stereo not shown) [lafutidine], the “Log P” value was 1.4.

For `O=C(O)CCCCCCCC(=O)O` [azelaic acid], the “Log P” value is 1.6.

As to `CCOC(=O)[C@H](CCc1ccccc1)N[C@@H](C)C(=O)N1CCC[C@H]1C(=O)O` [enalapril], the “Log P” value is reported as −0.1.

Consider `CC(=O)Nc1ccc(CC(=O)O)cc1` [actarit], for which the “Log P” value is on record as 0.4.

With `C[C@H](CS)C(=O)N1CCC[C@H]1C(=O)O` [captopril], the “Log P” value is listed as 0.3.

Take `NS(=O)(=O)c1cc(C2(O)NC(=O)c3ccccc32)ccc1Cl` (stereo not shown) [chlorthalidone]: the “Log P” value is given as 0.9.

As for `Cc1c(C(C)C)c(=O)n(-c2ccccc2)n1C` [isopropylantipyrine], the “Log P” value is given as 1.7.

As to `C=CC[C@@H]1/C=C(\C)C[C@H](C)C[C@H](OC)[C@H]2O[C@@](O)(C(=O)C(=O)N3CCCC[C@H]3C(=O)O[C@H](/C(C)=C/[C@@H]3CC[C@@H](O)[C@H](OC)C3)[C@H](C)[C@@H](O)CC1=O)[C@H](C)C[C@@H]2OC` [tacrolimus], the “Log P” value is 2.7.

For `CCOC(=O)[C@H](CCc1ccccc1)N[C@@H](C)C(=O)N(CC(=O)O)C1Cc2ccccc2C1` [delapril], the “Log P” value was 1.7.

Regarding `CNC(=C[N+](=O)[O-])NCCSCc1csc(CN(C)C)n1` [nizatidine], the “Log P” value was 1.6.

On to `COc1ccccc1O` [guaiacol], for which the “Log P” value is on record as 1.3.

`CN1CCN(CC(=O)N2c3ccccc3C(=O)Nc3cccnc32)CC1` [pirenzepine]: the “Log P” value is listed as 0.1.

Take `O=P(O)(O)C(O)(Cc1cccnc1)P(=O)(O)O` [risedronate]: the log partition coefficient (Log P) is on record as −3.5.

As to `N[C@H]1C(O)O[C@H](CO)[C@@H](O)[C@@H]1O` (stereo partly drawn) [D-glucosamine], the “Log P” value is recorded as −2.8.

Turning to `CC(C)(S)[C@@H](N)C(=O)O` [D-penicillamine], the “Log P” value is recorded as −1.8.

For `Nc1cc(N2CCCCC2)nc(N)[n+]1[O-]` [loniten], the “Log P” value is reported as 1.2.

In the case of `Clc1cccc(Cl)c1N=C1NCCN1` [clonidine], the “Log P” value is reported as 1.6.

For the molecule `NC(N)=Nc1nc(CSCCC(N)=NS(N)(=O)=O)cs1` [famotidine], the “Log P” value is listed as −0.6.

For the molecule `O=C1O[C@H]([C@@H](O)CO)C(O)=C1O` [L-ascorbic acid], the “Log P” value is listed as −1.6.

Consider `CC(=O)SC[C@@H](C)C(=O)N1CCC[C@H]1C(=O)N[C@@H](Cc1ccccc1)C(=O)O` [alacepril], for which the “Log P” value is 2.1.

Take `CCCCCCCC(=O)OCC(COC(=O)CCCCCCC)OC(=O)CCCCCCC` [Tricaprylin, glycerin tricaprylate]: the “Log P” value is given as 8.9.

In the case of `N[C@@H](CS)C(=O)O` [L-cysteine], the lipophilicity (Log P) was −2.5.

As to `CCCCc1ccc(O)cc1O` [rucinol], the “Log P” value is reported as 2.4.

Turning to `CCCC(=O)N1CCCN(c2nc(N)c3cc(OC)c(OC)cc3n2)CC1` [bunazosin], the “Log P” value was 2.2.

Regarding `CCOC(=O)[C@H](CCc1ccccc1)N[C@@H](C)C(=O)N1C(=O)N(C)C[C@H]1C(=O)O` [imidapril], the lipophilicity (Log P) was −0.7.

As to `NC[C@H]1CC[C@H](C(=O)O)CC1` [tranexamic acid], the “Log P” value is listed as −2.

For the molecule `Cn1c(NCCN(CCO)CCCc2ccc([N+](=O)[O-])cc2)cc(=O)n(C)c1=O` [nifekalant], the “Log P” value is given as 1.1.

Turning to `O=c1cc(CO)occ1O` [kojic acid], the “Log P” value is on record as −0.9.

Regarding `CCOC(=O)[C@H](CCc1ccccc1)N[C@@H](C)C(=O)N1Cc2ccccc2C[C@H]1C(=O)O` [quinapril], the “Log P” value is listed as 1.2.

Consider `CCOC(=O)[C@H](CCc1ccccc1)N[C@@H](C)C(=O)N1[C@H](C(=O)O)C[C@H]2CCCC[C@@H]21` [trandolapril], for which the “Log P” value is 2.

As to `NNc1nncc2ccccc12` [hydralazine], the “Log P” value is 0.7.

Take `COc1ccc(CCNC[C@H](O)c2ccc(O)cc2)cc1OC` [denopamine]: the “Log P” value is reported as 1.8.

On to `O[C@@H]1CO[C@H]2[C@@H]1OC[C@@H]2O` [isosorbide], for which the “Log P” value is on record as −1.4.

Turning to `O=C(O)c1cccnc1` [nicotinic acid], the “Log P” value is reported as 0.4.

Take `CCCCCCCCCCCCCC(=O)OC(C)C` [IPM, isopropyl myristate]: the “Log P” value is given as 7.2.

As for `OC[C@H]1O[C@H](OC[C@H]2O[C@H](O[C@]3(CO)O[C@H](CO)[C@@H](O)[C@@H]3O)[C@H](O)[C@@H](O)[C@@H]2O)[C@H](O)[C@@H](O)[C@H]1O` [raffinose], the “Log P” value is listed as −5.8.

`COc1ccc(CCNCC(O)COc2cccc(C)c2)cc1OC` (stereo not shown) [bevantolol]: the “Log P” value was 3.

Take `Nc1cc(-c2ccncc2)c[nH]c1=O` [amrinone]: the “Log P” value was −0.2.

Turning to `NCCS(=O)(O)=S` [thiotaurine], the log partition coefficient (Log P) was −0.1.

For the molecule `Cc1c(OCC(F)(F)F)ccnc1C[S+]([O-])c1nc2ccccc2[nH]1` (stereo not shown) [lansoprazole], the “Log P” value is recorded as 2.8.

On to `CC[C@H](C)[C@H](N)C(=O)O` [L-Isoleucine], for which the “Log P” value is “(LogP = −3.69)”.

Turning to `CCOC(=O)C1=C(COCCN)NC(C)=C(C(=O)OC)C1c1ccccc1Cl` (stereo not shown) [amlodipine], the “Log P” value is given as 3.

In the case of `COc1ccccc1N1CCN(CCCNc2cc(=O)n(C)c(=O)n2C)CC1` [urapidil], the “Log P” value was 1.5.

For the molecule `NS(=O)(=O)c1cc2c(cc1Cl)NC(C(Cl)Cl)NS2(=O)=O` (stereo not shown) [trichlormethiazide], the “Log P” value was 0.6.

As for `N[C@@H](CO)C(=O)O` [serine], the “Log P” value is listed as −3.1.

`CC(O)(P(=O)(O)O)P(=O)(O)O` [etidronic acid]: the “Log P” value was −3.7.

`NCCc1ccc(O)c(O)c1` [dopamine]: the “Log P” value is −1.

For `Cc1cc2c(cc1S(N)(=O)=O)S(=O)(=O)CCC2` [meticrane], the “Log P” value is on record as 0.5.

As for `CCC[C@H](N[C@@H](C)C(=O)N1[C@H](C(=O)O)C[C@@H]2CCCC[C@@H]21)C(=O)OCC` [perindopril], the “Log P” value is on record as 0.9.

As for `Cc1ccc(N(CC2=NCCN2)c2cccc(O)c2)cc1` [phentolamine], the “Log P” value is given as 2.6.

Regarding `O=C(NC(Cc1cc(=O)[nH]c2ccccc12)C(=O)O)c1ccc(Cl)cc1` (stereo not shown) [rebamipide], the “Log P” value was 2.4.

Turning to `COC(=O)[C@@H]1CC2=CC(=O)CC[C@]2(C)[C@@]23O[C@@H]2C[C@@]2(C)[C@@H](CC[C@@]24CCC(=O)O4)[C@H]13` [eplerenone], the “Log P” value was 1.4.

Turning to `COc1cc(C)nc(-n2nc(C)cc2OC)n1` [epirizole], the “Log P” value is 1.3.

In the case of `N[C@@H](CCC(=O)N[C@@H](CS)C(=O)NCC(=O)O)C(=O)O` [glutathione], the lipophilicity (Log P) is reported as −4.5.

Turning to `Cc1oncc1C(=O)Nc1ccc(C(F)(F)F)cc1` [leflunomide], the “Log P” value is reported as 2.6.

`COc1ccc(C(=O)N2CCN(c3ccc4c(c3)CCC(=O)N4)CC2)cc1OC` [vesnarinone]: the lipophilicity (Log P) is 2.1.

Turning to `Nc1nc(N)c2nc(-c3ccccc3)c(N)nc2n1` [triamterene], the “Log P” value is given as 1.

Consider `CC(=O)N[C@H]1C(O)O[C@H](CO)[C@@H](O)[C@@H]1O` (stereo partly drawn) [N-acetyl-D-glucosamine], for which the “Log P” value was −1.7.

On to `CC(C)NCC(O)c1ccc(NS(C)(=O)=O)cc1` (stereo not shown) [sotalol], for which the “Log P” value is given as 0.2.

Regarding `CCOC(=O)Oc1ccc(CCNC(=O)[C@H](CCSC)NC(C)=O)cc1OC(=O)OCC` [docarpamine], the “Log P” value is reported as 2.9.

As to `C[C@H](N)C(=O)O` [alanine], the “Log P” value was −3.

Regarding `OC[C@H]1O[C@@H](Oc2ccc(O)cc2)[C@H](O)[C@@H](O)[C@@H]1O` [arbutin], the “Log P” value is listed as −0.6.

`N[C@@H](Cc1c[nH]cn1)C(=O)O` [histidine]: the “Log P” value was −3.2.

In the case of `Cc1cccc(Nc2ccncc2S(=O)(=O)NC(=O)NC(C)C)c1` [torasemide], the “Log P” value was 2.7.

Regarding `CN(CC1(C)CCCO1)S(=O)(=O)c1ccc(Cl)c(S(N)(=O)=O)c1` (stereo not shown) [mefruside], the “Log P” value is recorded as 0.9.

As for `C[C@@](Cc1ccc(O)c(O)c1)(NN)C(=O)O` [carbidopa], the “Log P” value was −2.2.

In the case of `CCN(CC)CCNC(=O)c1ccc(N)cc1` [procainamide], the “Log P” value is recorded as 0.9.

As for `Cc1[nH]c(=O)c(C#N)cc1-c1ccncc1` [milrinone], the “Log P” value is given as 0.

For the molecule `CC(C)(CO)[C@@H](O)C(=O)NCCC(=O)O` [pantothenic acid], the “Log P” value is on record as −1.1.

Turning to `O=C(O)CCCC[C@@H]1SC[C@@H]2NC(=O)N[C@@H]21` [biotin], the “Log P” value was 0.3.

For `C[N+](C)(C)C[C@H](O)CC(=O)[O-]` [L-carnitine], the “Log P” value is reported as −0.2.

Turning to `CCOC(=O)[C@H](CCc1ccccc1)N[C@H]1CCCN2CCC[C@@H](C(=O)O)N2C1=O` [cilazapril], the “Log P” value was 0.6.

Consider `CC(C)(C)NCC(O)CSc1nc(-c2ccc(C(N)=O)s2)cs1` (stereo not shown) [arotinolol], for which the “Log P” value was 2.3.

Take `COc1cc2nc(N3CCN(C(=O)C4CCCO4)CC3)nc(N)c2cc1OC` (stereo not shown) [terazosin]: the “Log P” value is listed as 1.4.

In the case of `CCOC(=O)[C@H](CCc1ccccc1)N[C@H]1CS[C@H](c2cccs2)CN(CC(=O)O)C1=O` [temocapril], the “Log P” value is listed as 1.

For the molecule `Cc1cccc(C)c1NC(=O)CC12CCCN1CCC2` [pilsicainide], the “Log P” value is 2.7.
